Experimental data: publication PMC5986797, “Laminin heparin-binding peptides bind to several growth factors and enhance diabetic wound healing” (Nature Communications, 2018)

Tests used:
[1] = tested on: recombinant human laminin isoforms (–111, –211, –332, –411, –421, –511, and –521); experiment: ELISA: binding of full-length laminin isoforms to absorbed GFs and CXCL chemokines; settings: 50 nM GF coated, 10 nM laminin, n = 4; for binding to all tested laminin isoforms (ELISA, A450 nm): signals greater than 0.1 indicate binding; for binding to the other laminin isoforms (ELISA, A450 nm): isoforms other than laminin-332
Method: Ninety-six-well ELISA plates (med-binding, Greiner Bio-One) were coated with 50 nM GFs in 100 µL/well of phosphate-buffered saline (PBS) at 37 °C for more than 2 h. After blocking with 2% BSA solution containing PBS and 0.05% Tween 20 (PBS-T), 10 nM recombinant human laminin isoforms (–111, –211, –332, –411, –421, –511, and –521) (>95% purity tested by SDS-PAGE, BioLamina) in 100 µL/well PBS were added. Bound laminin was detected with 100 µL/well rabbit anti-human LAMC1 polyclonal antibody (Assay Biotech, Catalog No. C13072, 1:1000 dilution in PBS) or rabbit anti-human LAMA3 polyclonal antibody (Assay Biotech, Catalog No. C13066, 1:1000 dilution in PBS). After incubation with biotinylated anti-rabbit antibody for 60 min at room temperature (RT), HRP-conjugated streptavidin (Jackson ImmunoResearch) was added. After 60 min of incubation at RT, 50 μL of TMB substrate (Sigma-Aldrich) was added. The reactions were stopped by adding 25 μL of 2 N H2SO4. Subsequently, the absorbance at 450 nm was measured with a reference of 570 nm.

PlGF-2 = experiment: ELISA: PlGF-2 binding to laminin LG domain / laminin peptide; parameters: species or system human; settings: 10 µg/mL laminin peptide coated (legend; method 1 μg/mL); 1 μg/mL GF; vs BSA-coated wells; n = 4
Method: (§1) ELISA tests were performed as described above. In brief, ELISA plates were coated with 1 μg/mL of laminin alpha 3 LG domain recombinant protein, laminin alpha 4 LG domain recombinant protein (R&D Systems), laminin alpha 5 LG domain recombinant protein (LD BioPharma), or laminin peptide (sequences are described in Supplementary Table 1, chemically synthesized by Genscript) in PBS for 2 h at 37 °C. A concentration of 1 μg/mL of BSA served as non-binding protein control. After blocking with 2% BSA PBS-0.05% Tween 20 (PBS-T) solution, 1 μg/mL of the recombinant human proteins (VEGF-A121, VEGF-A165, PlGF-1, PlGF-2, PDGF-BB, or FGF-2) or 10 μg/mL of biotinylated heparin (Sigma-Aldrich) were added. Bound GF was detected with biotinylated antibodies for human VEGF-A, PlGF, PDGF-BB (R&D Systems, Catalog No. DY220, 1:180 dilution), or FGF-2 (R&D Systems). The antibodies were detected by streptavidin-HRP (R&D Systems).

[2] = tested on: recombinant human syndecan-1, syndecan-2, syndecan-3, and syndecan-4; experiment: ELISA: syndecan binding to laminin peptides; parameters: key to Interaction with Syndecan: ++ indicates high affinities; + indicates medium/low affinities; settings: for binding to syndecans 1–4 (ELISA): 10 µg/mL laminin peptide coated (legend; method 1 μg/mL), 1 μg/mL histidine-tagged syndecan, vs BSA-coated wells, n = 8; for Interaction with Syndecan: summary table
Method: ELISA tests were performed as described above. […] A concentration of 1 μg/mL of BSA served as non-binding protein control. After blocking with 2% BSA PBS-T solution, 1 μg/mL of the recombinant human syndecan-1, syndecan-2, syndecan-3, and syndecan-4 (all syndecan proteins are histidine-tagged; SinoBiological) were added. Bound GF was detected with anti-histidine tag antibody (BioLegend, Catalog No. 562504, 1:1000 dilution).

GF = experiment: ELISA: GF binding to laminin peptides, stated for the tested GFs together; parameters: species or system human; key: ++ indicates high affinities; + indicates medium/low affinities; settings: summary table
Method: as §1

VEGF-A165 = experiment: ELISA: VEGF-A165 binding to laminin LG domain / laminin peptide; parameters: species or system human; settings: 10 µg/mL laminin peptide coated (legend; method 1 μg/mL); 1 μg/mL GF; vs BSA-coated wells; n = 4
Method: as §1, with “ELISA plates were coated with 1 μg/mL of laminin alpha 3 LG domain” left out

[3] = ELISA: biotinylated heparin binding to laminin peptides; parameters: key to Interaction with Heparin: ++ indicates high affinities; + indicates medium/low affinities; settings: for binding to heparin (ELISA): 10 µg/mL laminin peptide coated (legend; method 1 μg/mL), 10 µg/mL biotinylated heparin, vs BSA-coated wells, n = 4; for Interaction with Heparin: summary table
Method: as §1, with “ELISA plates were coated with 1 μg/mL of laminin alpha 3 LG domain” left out

PDGF-BB = experiment: ELISA: PDGF-BB binding to laminin LG domain / laminin peptide; parameters: species or system human; settings: 10 µg/mL laminin peptide coated (legend; method 1 μg/mL); 1 μg/mL GF; vs BSA-coated wells; n = 4
Method: as §1

human lung fibroblasts = experiment: Cell adhesion assay, fibroblasts; type: cell-based; parameters: key to Cell adhesion Fibroblast: ++ indicates high affinities; + indicates medium/low affinities; settings: for Cell adhesion Fibroblast: summary table; for fibroblast attachment on peptide-coated surfaces: without EDTA, 1 μg/mL peptide coated, 3000 cells/well, 30 min, 37 °C, FGM-2, 1% FBS, CyQUANT, vs BSA, n = 10
Method: (§2) A total of 96-well plates (non-tissue culture treated, Greiner Bio-One) were pre-coated with 1 μg/mL with laminin HBD peptides in PBS for 2 h at 37 °C, followed by blocking with 2% BSA PBS for 1 h at RT. Cell adhesion assays were performed using human lung fibroblasts (Lonza) in FGM-2 medium (Lonza) or human umbilical vein endothelial cells (HUVEC; Lonza) in EGM-2 medium (Lonza) supplemented with 1% fetal bovine serum (FBS) and 100 µg/mL VEGF-A165, with or without 5 mM EDTA (Sigma-Aldrich). Cells were plated at 3000 cells/well on laminin peptide pre-coated plates and incubated for 30 min at 37 °C, 5% CO2. Then, the medium was removed, and wells were quickly washed three times with PBS. Cell numbers were quantified using a CyQUANT assay, according to the manufacturer’s instructions (Invitrogen). All cell lines were checked for mycoplasma contamination and used in passages from 5 to 8.

[4] = tested on: human umbilical vein endothelial cells (HUVEC); experiment: Cell adhesion assay, HUVEC; type: cell-based; parameters: key to Cell adhesion HUVEC: ++ indicates high affinities; + indicates medium/low affinities; settings: for Cell adhesion HUVEC: summary table; for HUVEC attachment on peptide-coated surfaces: without EDTA, 1 μg/mL peptide coated, 3000 cells/well, 30 min, 37 °C, 100 ng/mL VEGF-A165, 1% FBS, CyQUANT, n = 10
Method: as §2, with “Cell adhesion assays were performed using human lung fibroblasts (Lonza) in FGM-2 medium (Lonza) or human umbilical vein endothelial cells (HUVEC; Lonza) in EGM-2 medium (Lonza) supplemented with 1% fetal bovine serum (FBS) and 100 µg/mL VEGF-A165, with or without 5 mM EDTA (Sigma-Aldrich).” left out

FGF-2 = experiment: ELISA: FGF-2 binding to laminin LG domain / laminin peptide; parameters: species or system human; settings: 10 µg/mL laminin peptide coated (legend; method 1 μg/mL); 1 μg/mL GF; vs BSA-coated wells; n = 4
Method: as §1

HB-EGF: heparin-binding epidermal growth factor, PeproTech
binding to all tested laminin isoforms (ELISA, A450 nm) [1]: weakly bound

TPGLGPRGLQATARKASRRSRQPARHPACML [LAMA5_3300–3330, chemically synthesized human laminin LAMA5 linker peptide, 31 aa]
binding to PlGF-2 (ELISA), peptides (PlGF-2): preferentially bound
binding to syndecans 1–4 (ELISA) [2]: significant binding
Interaction with Syndecan [2]: ++
Interaction with GF (GF): +
binding to VEGF-A165 (ELISA), peptides (VEGF-A165): preferentially bound
binding to heparin (ELISA) [3]: bound to heparin
Interaction with Heparin [3]: ++

CXCL-12γ: C–X–C motif ligand (CXCL)-12γ, R&D systems
binding to all tested laminin isoforms (ELISA, A450 nm) [1]: bound

FGF-2: fibroblast growth factor, PeproTech
binding to all tested laminin isoforms (ELISA, A450 nm) [1]: bound

CXCL-11: CXCL chemokine, PeproTech
binding to the other laminin isoforms (ELISA, A450 nm) [1]: not to the other isoforms
binding to laminin-332 (ELISA, A450 nm) [1]: bound weakly

NT-3: neurotrophin, PeproTech
binding to all tested laminin isoforms (ELISA, A450 nm) [1]: strong binding

PDGF-BB: platelet-derived growth factor, PeproTech
binding to all tested laminin isoforms (ELISA, A450 nm) [1]: bound

βNGF: β-nerve growth factor, PeproTech
binding to all tested laminin isoforms (ELISA, A450 nm) [1]: bound only weakly

BMP-4: bone morphogenetic protein, PeproTech
binding to all tested laminin isoforms (ELISA, A450 nm) [1]: not

PDGF-AA: platelet-derived growth factor, PeproTech
binding to all tested laminin isoforms (ELISA, A450 nm) [1]: bound

TLFLAHGRLVYMFNVGHKKLKIR [LAMA4_1521–1543, chemically synthesized human laminin LAMA4 LG4 peptide, 23 aa]
binding to PDGF-BB (ELISA), peptides (PDGF-BB): not statistically significant
Cell adhesion Fibroblast (human lung fibroblasts): +
fibroblast attachment on peptide-coated surfaces (human lung fibroblasts): enhancement of fibroblast attachment
Cell adhesion HUVEC [4]: +
HUVEC attachment on peptide-coated surfaces [4]: promoted HUVEC attachment
binding to syndecans 1–4 (ELISA) [2]: significant binding
Interaction with Syndecan [2]: ++
Interaction with GF (GF): +
binding to heparin (ELISA) [3]: bound to heparin
Interaction with Heparin [3]: ++

PPFLMLLKGSTRFNKTKTFR [LAMA3_2932–2951, chemically synthesized human laminin LAMA3 LG3–LG4 linker peptide, 20 aa]
Cell adhesion Fibroblast (human lung fibroblasts): +
fibroblast attachment on peptide-coated surfaces (human lung fibroblasts): enhancement of fibroblast attachment
Cell adhesion HUVEC [4]: +
HUVEC attachment on peptide-coated surfaces [4]: promoted HUVEC attachment
binding to syndecans 1–4 (ELISA) [2]: weak binding
Interaction with Syndecan [2]: +
Interaction with GF (GF): +
binding to FGF-2 (ELISA), peptides (FGF-2): preferentially bound
binding to VEGF-A165 (ELISA), peptides (VEGF-A165): preferentially bound
binding to heparin (ELISA) [3]: bound to heparin
Interaction with Heparin [3]: ++

PLFLLHKKGKNLSKPKASQNKKGGKSK [LAMA4_1408–1434, chemically synthesized human laminin LAMA4 linker peptide, 27 aa]
binding to PlGF-2 (ELISA), peptides (PlGF-2): bound
binding to PDGF-BB (ELISA), peptides (PDGF-BB): bound
binding to syndecans 1–4 (ELISA) [2]: significant binding
Interaction with Syndecan [2]: ++
Interaction with GF (GF): ++
binding to FGF-2 (ELISA), peptides (FGF-2): bound
binding to VEGF-A165 (ELISA), peptides (VEGF-A165): bound
binding to heparin (ELISA) [3]: bound to heparin
Interaction with Heparin [3]: ++

KNSFMALYLSKGR [LAMA3_3031–3043, chemically synthesized human laminin LAMA3 LG4 peptide, 13 aa]
Cell adhesion Fibroblast (human lung fibroblasts): +
fibroblast attachment on peptide-coated surfaces (human lung fibroblasts): enhancement of fibroblast attachment
binding to syndecans 1–4 (ELISA) [2]: weak binding
Interaction with Syndecan [2]: +
Interaction with GF (GF): +
binding to VEGF-A165 (ELISA), peptides (VEGF-A165): bound
binding to heparin (ELISA) [3]: do not show heparin binding

FGF-1: fibroblast growth factor, PeproTech
binding to all tested laminin isoforms (ELISA, A450 nm) [1]: did not

IGF-1: insulin-like growth factor, PeproTech
binding to all tested laminin isoforms (ELISA, A450 nm) [1]: Neither IGF-1 nor IGF-2 displayed significant binding

IGF-2: insulin-like growth factor, PeproTech
binding to all tested laminin isoforms (ELISA, A450 nm) [1]: Neither IGF-1 nor IGF-2 displayed significant binding

CXCL-12α: CXCL chemokine, PeproTech
binding to the other laminin isoforms (ELISA, A450 nm) [1]: not to the other isoforms
binding to laminin-332 (ELISA, A450 nm) [1]: bound weakly

FGF-18: fibroblast growth factor, PeproTech
binding to all tested laminin isoforms (ELISA, A450 nm) [1]: bound
